Holding throughout (type): cell-based, mouse
Series [1] deals with dissociated neurosphere cells. In words: Neurosphere formation in the presence of AC inhibitors. To be noted: 1,000 cells per well, 0.01 to 10 μM AC inhibitor, neurospheres counted, read-out: IC50 of inhibition of neurosphere formation. As to the method:
Mouse brains harvested from E14.5 fetuses were digested with 0.25% trypsin/1mM EDTA solution for 30 minutes at 37° C. The tissues were triturated sequentially with a 10-mL pipette, a 1-mL pipette and a 0.2-mL pipette in medium containing 10% fetal bovine serum (FBS). The dissociated cells were washed 3 times with PBS by repeated resuspension and centrifugation, and filtered through a 40-μm strainer. The obtained single cells were plated in DMEM/F12 medium containing 10 ng/mL bFGF, 20 ng/mL EGF and B27 without vitamin A, and cultured for 7-10 days without changing the medium.
(§1) To assess the effects of CDy5 and AC inhibitors on neurosphere formation, dissociated neurosphere cells were plated in 12-well culture plates at a density of 1,000 cells per well and cultures in the presence of 2 μM or 4 μM CDy5 or 0.01 to 10 μM AC inhibitor. For vehicle control, DMSO was added to a volume of 0.1%. The IC50 values were calculated using GraphPad Prism software.
Ceranib-2 was developed as a ceramidase inhibitor by screening ˜50,000 small molecules and chemical optimization of a lead compound. It inhibits cancer cell growth in vivo as well as in vitro (21).

The test system of series [2] is dissociated neurosphere cells. The series is described as follows: Cytotoxicity assay: number of neurospheres grown in the presence of CDy5. Conditions: for number of neurospheres: vehicle control 189±40. The protocol: as §1
(§2) Whether CDy5 exerts adverse effects on proliferation and differentiation of neural stem cells was also assessed using a neurosphere assay and multipotency test. For cytotoxicity assay, dissociated neurosphere cells were plated in triplicate in 6-well culture plates at a density of 1,000 cells per well and cultured in the presence of 2 μM or 4 μM CDy5. For vehicle control, 0.1% DMSO was added. After six days, the number of neurospheres was determined.

Series [3] relates to neurospheres. The series is described as follows: Multipotency test of neurospheres generated in the presence of CDy5. To be noted: neurospheres generated in the presence of CDy5, differentiated in 5% FBS. As to the method: as §2
The single neurospheres generated in the presence of CDy5 and normal medium were then plated onto glass coverslips coated with laminin and poly-L-lysine, cultured in medium containing 5% fetal bovine serum and allowed to undergo differentiation. The differentiated cells were immunostained using antibodies raised against markers of astrocyte, neuron and oligodendrocyte to classify the neurospheres into uni-, bi- and tri-potent depending on the number of positively stained cell types. The control group contained 55±6% unipotent neurospheres, 29±3% bipotent neurospheres and 16±3% tripotent neurospheres. The CDy5 group contained 49±1% unipotent neurospheres, 31±4% bipotent neurospheres and 20±3% tripotent neurospheres. These are very similar ratios of differentiation potential of neurospheres between control and CDy5 groups.

In a further series the test system is neurosphere cells. The series is described as follows: Neurosphere assay of FACS-sorted CDy5bright and CDy5dim cells. To be noted: FACS-sorted cells, 3,000 cells per well, six days of culture. As to the method: The method of detecting a stem cell in a sample can further comprise distinguishing between a neural stem cell and a differentiated neural cell in the sample. For example, when a mouse neurosphere was treated with CDy5, cytoplasmic staining of a distinct cell population within the neurosphere was observed (FIG. 1). The so-called CDy5^bright cells, those visible in the right panel of FIG. 1, emitted a signal that was substantially greater than the signal emitted by the so-called CDy5^dim cells. […] In the experiment described above, a cell was considered to be a CDy5^dim cell if no signal could be detected by fluorescence microscopy, or the signal detected was not substantially greater than background signal.
Dissociated neurosphere cells were cultured in a complete neurosphere culture medium containing 2 μM CDy5 for six days. They were dissociated for single cell imaging, live cell time-lapse imaging and clonal neurosphere imaging. […]
To examine the relationship between stemness and CDy5 staining, CDy5^bright and CDy5^dim neurosphere cells were sorted and collected by FACS and separately resuspended in neurosphere culture medium and plated in triplicate in […] culture plates at a density of 3,000 cells per well. […] After six days of culture, the number of neurospheres was counted manually under a microscope.

The subject of series [4] is neurospheres. The series is described as follows: Differentiation potential of neurospheres generated from CDy5bright and CDy5dim cells. Conditions: mean±SD of duplicates. The protocol: Single neurospheres were plated onto glass coverslips coated with laminin and poly-L-lysine and cultured in bFGF/EGF-depleted neurosphere culture medium containing 5% fetal bovine serum. The differentiated cells were fixed with 4% paraformaldehyde and stained using primary antibodies: Tuj1 (Covance), glial fibrillary acidic protein (GFAP) (Dako), and O4 (Millipore), and appropriate secondary antibodies: Alexa Fluor 488 goat anti-mouse, Alexa Fluor 594 goat anti-mouse and Alexa Fluor 647 donkey anti-rabbit (Life Technologies), respectively. Tuj1 was used as a marker for neurons, GFAP was used as a marker for astrocytes and 04 was used as a marker for oligodendrocytes.
When the neurospheres were randomly differentiated in a medium containing only FBS, and immunostained against astrocyte, neuron and oligodendrocyte markers as described above, more numbers of neurospheres generated from CDy5^bright cells differentiated into all three types of cells than those from CDy5^dim cells. The CDy5^bright cells differentiated into 30±4% uni-potent cells, 26±1 bi-potent cells and 44±3 tri-potent cells. The CDy5^dim cells differentiated into 47±6 uni-potent cells, 22±1 bi-potent cells and 31±7 tri-potent cells. Data represent mean±standard deviation (SD) of duplicates.

The test system of series [5] is neurospheres. The series is described as follows: Dye retention in stained neurospheres after paraformaldehyde fixation and methanol extraction. To be noted: 4% paraformaldehyde fixation followed by absolute methanol. The text has this:
To determine if CDy5 forms a covalent bond with a protein, neurospheres stained with CDy5 and Hoechst 33342 were fixed using 4% paraformaldehyde followed by absolute methanol, which extracts organic dyes bound to their targets by noncovalent bonding. Both CDy5 and Hoechst signals were detected when observed after fixation with paraformaldehyde.

[6] abbreviates: neurospheres from CDy5bright cells.
[7] abbreviates: neurospheres from CDy5dim cells.

Read-outs that look alike come from different tables or passages of the source.

Regarding `COc1ccc(/C=C/C(=O)c2c(-c3ccccc3)c3ccccc3[nH]c2=O)cc1` [Ceranib-2], the 50% inhibitory concentration (IC50) in series [1] amounted to 780 nM.

For `CN(CCNC(=O)CCl)c1ccc2c(-c3cccc(CN4CCOCC4)c3)c3ccc(=N)cc-3oc2c1` [CDy5], the “number of neurospheres compared to vehicle-added control group” value in series [2] (2 μM and 4 μM CDy5, six days of culture) is recorded as “not significantly different”. In addition, the number of neurospheres in series [2] (medium containing 2 μM CDy5) was 229±72. Further, in series [2] (medium containing 4 μM CDy5), the number of neurospheres is given as 228±83. In addition, in the series on neurospheres [3] (control 16±3%), the tripotent neurospheres is recorded as 20±3%. Moreover, in the series on neurospheres [3] (control 29±3%), the bipotent neurospheres came to 31±4%. Further, the unipotent neurospheres in the series on neurospheres [3] (control 55±6%) came out at 49±1%. The “times more neurospheres from CDy5bright cells than from CDy5dim cells” value in the series on neurosphere cells is “more than 10 times”. Moreover, in the series on neurospheres [4] (setting [6]), the bi-potent stood at 26±1%, the tri-potent is reported as 44±3% and the uni-potent is given as 30±4%. Besides, in the series with neurospheres [4] (setting [7]), the bi-potent came to 22±1%, the tri-potent is given as 31±7% and the uni-potent is 47±6%.

For `CCCCCCNC(=O)n1cc(F)c(=O)[nH]c1=O` [Carmofur], the IC50 in series [1] (Mus musculus) was 920 nM.

Regarding `CCOc1ccc(-c2nc3ccc(-c4nc5ccc(N6CCN(C)CC6)cc5[nH]4)cc3[nH]2)cc1` [Hoechst 33342], the “dye signal following methanol treatment” value with neurospheres [5] was “almost completely washed out”.

The term IC50 denotes the concentration that inhibits the measured activity by half.

(Values after patent publication US20150293109A1, “Fluorescent Chemical Dye for Visualization of Neural Stem Cell Symmetric and Asymmetric Division” (NATIONAL UNIVERSITY OF SINGAPORE, priority 2012, published 2015).)
